According to the supplement of paper PMC12463676, “Small-molecule dissolution of stress granules by redox modulation benefits ALS models” (Nature Chemical Biology, 2025):

Experiments:
potassium arsenate = compound: O=[As]([O-])(O)O.[K+] [potassium arsenate]; test: thermal stability z-score vs DMSO; higher = more thermally stabilized by treatment; settings: HeLa; arsenate concentration 1 mM
Description: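 Cellular thermal proteome profiling in HeLa cells treated with 1 mM arsenate for 1 h (DMSO pretreatment), heated to ten temperatures (37-66.3 °C). Soluble protein was quantified by TMT mass spectrometry relative to DMSO controls; the thermal stability score was transformed to a z-score; mean of n = 3 experiments.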

lipoamide = compound: NC(=O)CCCCC1CCSS1 [lipoamide]; test: as above; settings: HeLa, lipoamide concentration 100 µM
Description: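 Cellular thermal proteome profiling in HeLa cells. Cells were treated with 100 µM lipoamide for 1 h, with or without 1 mM arsenate for a further 1 h, then heated to ten temperatures (37-66.3 °C), and soluble protein was quantified by TMT mass spectrometry relative to 0.1% DMSO controls. The thermal stability score (sum of log2 fold changes minus the abundance score) was transformed to a z-score; mean of n = 3 experiments.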

[1] = arsenate co-treatment: 1 mM arsenate 1 h
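Further: each temperature applied for 3 min, abundance score taken as mean log2 fold change at the two lowest temperatures, z-score obtained by mean subtraction and division by SD.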

Target: ATP2B2 (UniProt Q01814)
- thermal stability z-score (potassium arsenate): 0.106
- thermal stability z-score (lipoamide; [1]): -0.146
- thermal stability z-score (lipoamide; arsenate co-treatment: none): -0.424

Target: ESRP2 (UniProt Q9H6T0)
- thermal stability z-score (potassium arsenate): 0.0815
- thermal stability z-score (lipoamide; [1]): -0.121
- thermal stability z-score (lipoamide; arsenate co-treatment: none): 0.00175

Target: ACAD11 (UniProt Q709F0)
UniProt Q709F0, sequence (Q709F0 whole entry): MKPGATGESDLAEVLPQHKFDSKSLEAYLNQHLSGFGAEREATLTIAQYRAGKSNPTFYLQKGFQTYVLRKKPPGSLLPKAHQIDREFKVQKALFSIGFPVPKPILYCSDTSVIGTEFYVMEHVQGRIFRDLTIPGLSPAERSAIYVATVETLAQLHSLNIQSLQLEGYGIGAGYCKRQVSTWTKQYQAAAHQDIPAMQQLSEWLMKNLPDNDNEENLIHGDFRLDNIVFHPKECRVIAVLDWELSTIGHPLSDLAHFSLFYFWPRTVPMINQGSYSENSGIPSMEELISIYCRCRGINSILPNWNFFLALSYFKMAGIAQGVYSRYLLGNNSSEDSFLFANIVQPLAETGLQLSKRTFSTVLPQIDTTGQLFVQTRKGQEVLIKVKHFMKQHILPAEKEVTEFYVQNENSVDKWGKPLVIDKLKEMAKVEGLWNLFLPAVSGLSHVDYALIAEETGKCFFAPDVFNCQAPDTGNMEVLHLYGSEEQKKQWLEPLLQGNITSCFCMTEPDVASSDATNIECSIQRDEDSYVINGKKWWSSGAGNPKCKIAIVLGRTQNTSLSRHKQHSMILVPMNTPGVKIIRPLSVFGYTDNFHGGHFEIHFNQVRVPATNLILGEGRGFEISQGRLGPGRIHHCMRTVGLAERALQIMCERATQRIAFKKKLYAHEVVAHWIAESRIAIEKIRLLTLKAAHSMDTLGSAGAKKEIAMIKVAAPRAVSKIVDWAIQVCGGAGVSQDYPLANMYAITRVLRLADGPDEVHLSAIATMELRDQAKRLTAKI
- thermal stability z-score (potassium arsenate): -0.343
- thermal stability z-score (lipoamide; [1]): -0.363
- thermal stability z-score (lipoamide; arsenate co-treatment: none): 0.0251

Target: NAA38 (UniProt Q9BRA0)
- thermal stability z-score (potassium arsenate): -0.643
- thermal stability z-score (lipoamide; [1]): 0.599
- thermal stability z-score (lipoamide; arsenate co-treatment: none): 0.425

Target: DDX50 (UniProt Q9BQ39)
- thermal stability z-score (potassium arsenate): -0.49
- thermal stability z-score (lipoamide; [1]): 0.262
- thermal stability z-score (lipoamide; arsenate co-treatment: none): 0.192

Target: CHP1 (UniProt Q99653)
UniProt Q99653, sequence (Q99653 whole entry): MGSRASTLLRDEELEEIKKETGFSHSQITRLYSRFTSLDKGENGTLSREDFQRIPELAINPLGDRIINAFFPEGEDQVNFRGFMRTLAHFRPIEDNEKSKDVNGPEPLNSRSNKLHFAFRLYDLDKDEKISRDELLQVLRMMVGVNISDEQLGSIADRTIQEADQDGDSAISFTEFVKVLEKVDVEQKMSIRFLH
- thermal stability z-score (potassium arsenate): 1.28
- thermal stability z-score (lipoamide; [1]): 0.377
- thermal stability z-score (lipoamide; arsenate co-treatment: none): 0.436

Target: RNF187 (UniProt Q5TA31)
- thermal stability z-score (potassium arsenate): -0.503
- thermal stability z-score (lipoamide; [1]): -0.474
- thermal stability z-score (lipoamide; arsenate co-treatment: none): -1.96

Target: GSPT2 (UniProt Q8IYD1)
- thermal stability z-score (potassium arsenate): -0.621
- thermal stability z-score (lipoamide; [1]): -0.0489
- thermal stability z-score (lipoamide; arsenate co-treatment: none): -0.153

Target: LRRC16A (UniProt Q5VZK9)
- thermal stability z-score (potassium arsenate): 1.26
- thermal stability z-score (lipoamide; [1]): 0.276
- thermal stability z-score (lipoamide; arsenate co-treatment: none): 0.0854

Target: CTU2 (UniProt Q2VPK5)
UniProt Q2VPK5, sequence (Q2VPK5 whole entry): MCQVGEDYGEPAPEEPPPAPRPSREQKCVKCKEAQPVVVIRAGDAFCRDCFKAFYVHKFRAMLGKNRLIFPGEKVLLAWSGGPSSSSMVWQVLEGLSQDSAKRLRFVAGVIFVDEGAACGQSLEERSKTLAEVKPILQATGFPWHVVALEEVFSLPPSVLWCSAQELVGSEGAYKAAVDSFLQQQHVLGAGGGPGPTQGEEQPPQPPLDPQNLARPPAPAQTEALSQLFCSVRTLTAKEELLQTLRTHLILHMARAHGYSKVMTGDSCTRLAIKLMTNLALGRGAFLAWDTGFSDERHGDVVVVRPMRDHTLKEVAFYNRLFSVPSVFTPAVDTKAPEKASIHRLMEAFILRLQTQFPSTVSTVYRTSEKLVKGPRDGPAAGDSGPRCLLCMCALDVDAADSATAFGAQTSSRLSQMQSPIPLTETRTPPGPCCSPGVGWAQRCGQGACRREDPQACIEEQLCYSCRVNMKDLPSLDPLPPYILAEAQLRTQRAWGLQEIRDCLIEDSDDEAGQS
- thermal stability z-score (potassium arsenate): -0.165
- thermal stability z-score (lipoamide; [1]): 0.157
- thermal stability z-score (lipoamide; arsenate co-treatment: none): 0.225

Target: PAK4 (UniProt O96013)
- thermal stability z-score (potassium arsenate): -0.347
- thermal stability z-score (lipoamide; [1]): -0.224
- thermal stability z-score (lipoamide; arsenate co-treatment: none): -0.347

Target: AHCYL2 (UniProt Q96HN2)
- thermal stability z-score (potassium arsenate): -1.74
- thermal stability z-score (lipoamide; [1]): 0.295
- thermal stability z-score (lipoamide; arsenate co-treatment: none): 0.547

Target: IDH2 (UniProt P48735)
- thermal stability z-score (potassium arsenate): -0.911
- thermal stability z-score (lipoamide; [1]): -0.129
- thermal stability z-score (lipoamide; arsenate co-treatment: none): 0.0632

Target: IKBKAP (UniProt O95163)
- thermal stability z-score (potassium arsenate): -0.261
- thermal stability z-score (lipoamide; [1]): -0.193
- thermal stability z-score (lipoamide; arsenate co-treatment: none): -0.141

Target: SLC39A6 (UniProt Q13433)
- thermal stability z-score (potassium arsenate): 0.868
- thermal stability z-score (lipoamide; [1]): -0.119
- thermal stability z-score (lipoamide; arsenate co-treatment: none): 0.454

Target: SRI (UniProt P30626)
- thermal stability z-score (potassium arsenate): 0.177
- thermal stability z-score (lipoamide; [1]): 1.28
- thermal stability z-score (lipoamide; arsenate co-treatment: none): 0.78

Target: ATP6V1C1 (UniProt P21283)
- thermal stability z-score (potassium arsenate): 0.132
- thermal stability z-score (lipoamide; [1]): -0.136
- thermal stability z-score (lipoamide; arsenate co-treatment: none): 0.0202

Target: CEP76 (UniProt Q8TAP6)
UniProt Q8TAP6, sequence (Q8TAP6 whole entry): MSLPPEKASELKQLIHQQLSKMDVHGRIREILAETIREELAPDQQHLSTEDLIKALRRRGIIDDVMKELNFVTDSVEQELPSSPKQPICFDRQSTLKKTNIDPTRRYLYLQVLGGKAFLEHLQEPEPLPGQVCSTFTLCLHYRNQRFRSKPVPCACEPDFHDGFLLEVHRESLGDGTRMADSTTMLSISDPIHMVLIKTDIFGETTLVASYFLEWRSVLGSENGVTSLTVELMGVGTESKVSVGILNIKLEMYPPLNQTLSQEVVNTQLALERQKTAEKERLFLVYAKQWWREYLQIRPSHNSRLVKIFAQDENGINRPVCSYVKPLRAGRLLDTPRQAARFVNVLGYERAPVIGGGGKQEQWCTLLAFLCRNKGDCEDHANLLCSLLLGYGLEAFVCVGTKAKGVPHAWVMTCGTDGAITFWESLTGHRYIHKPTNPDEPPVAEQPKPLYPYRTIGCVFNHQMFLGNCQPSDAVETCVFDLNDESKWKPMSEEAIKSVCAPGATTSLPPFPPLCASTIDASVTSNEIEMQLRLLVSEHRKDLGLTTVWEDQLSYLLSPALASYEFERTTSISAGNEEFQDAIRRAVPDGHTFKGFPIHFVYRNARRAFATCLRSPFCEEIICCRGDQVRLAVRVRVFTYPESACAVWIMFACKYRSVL
- thermal stability z-score (potassium arsenate): -1.36
- thermal stability z-score (lipoamide; [1]): -0.336
- thermal stability z-score (lipoamide; arsenate co-treatment: none): 0.197

Target: AP5Z1 (UniProt O43299)
- thermal stability z-score (potassium arsenate): 0.502
- thermal stability z-score (lipoamide; [1]): 0.0372
- thermal stability z-score (lipoamide; arsenate co-treatment: none): 0.822

Target: CCDC43 (UniProt Q96MW1)
- thermal stability z-score (potassium arsenate): 0.864
- thermal stability z-score (lipoamide; [1]): 0.776
- thermal stability z-score (lipoamide; arsenate co-treatment: none): 0.412

Target: PCGF5 (UniProt Q86SE9)
UniProt Q86SE9, sequence (Q86SE9 whole entry): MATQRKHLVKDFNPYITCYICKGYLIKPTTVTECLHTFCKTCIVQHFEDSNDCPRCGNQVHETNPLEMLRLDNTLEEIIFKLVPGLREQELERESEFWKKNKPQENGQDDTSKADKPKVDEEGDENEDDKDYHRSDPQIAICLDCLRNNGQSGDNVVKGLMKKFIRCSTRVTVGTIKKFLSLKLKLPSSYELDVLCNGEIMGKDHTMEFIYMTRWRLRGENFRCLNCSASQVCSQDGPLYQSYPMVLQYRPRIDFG
- thermal stability z-score (potassium arsenate): -0.181
- thermal stability z-score (lipoamide; [1]): 0.0387
- thermal stability z-score (lipoamide; arsenate co-treatment: none): 0.0817

Target: SLC38A5 (UniProt Q8WUX1)
- thermal stability z-score (potassium arsenate): -0.311
- thermal stability z-score (lipoamide; [1]): 0.333
- thermal stability z-score (lipoamide; arsenate co-treatment: none): -0.181

Target: PDP1 (UniProt Q9P0J1)
- thermal stability z-score (potassium arsenate): -0.0616
- thermal stability z-score (lipoamide; [1]): 0.0374
- thermal stability z-score (lipoamide; arsenate co-treatment: none): -0.191

Target: DIAPH3 (UniProt Q9NSV4)
UniProt Q9NSV4, sequence (Q9NSV4 whole entry): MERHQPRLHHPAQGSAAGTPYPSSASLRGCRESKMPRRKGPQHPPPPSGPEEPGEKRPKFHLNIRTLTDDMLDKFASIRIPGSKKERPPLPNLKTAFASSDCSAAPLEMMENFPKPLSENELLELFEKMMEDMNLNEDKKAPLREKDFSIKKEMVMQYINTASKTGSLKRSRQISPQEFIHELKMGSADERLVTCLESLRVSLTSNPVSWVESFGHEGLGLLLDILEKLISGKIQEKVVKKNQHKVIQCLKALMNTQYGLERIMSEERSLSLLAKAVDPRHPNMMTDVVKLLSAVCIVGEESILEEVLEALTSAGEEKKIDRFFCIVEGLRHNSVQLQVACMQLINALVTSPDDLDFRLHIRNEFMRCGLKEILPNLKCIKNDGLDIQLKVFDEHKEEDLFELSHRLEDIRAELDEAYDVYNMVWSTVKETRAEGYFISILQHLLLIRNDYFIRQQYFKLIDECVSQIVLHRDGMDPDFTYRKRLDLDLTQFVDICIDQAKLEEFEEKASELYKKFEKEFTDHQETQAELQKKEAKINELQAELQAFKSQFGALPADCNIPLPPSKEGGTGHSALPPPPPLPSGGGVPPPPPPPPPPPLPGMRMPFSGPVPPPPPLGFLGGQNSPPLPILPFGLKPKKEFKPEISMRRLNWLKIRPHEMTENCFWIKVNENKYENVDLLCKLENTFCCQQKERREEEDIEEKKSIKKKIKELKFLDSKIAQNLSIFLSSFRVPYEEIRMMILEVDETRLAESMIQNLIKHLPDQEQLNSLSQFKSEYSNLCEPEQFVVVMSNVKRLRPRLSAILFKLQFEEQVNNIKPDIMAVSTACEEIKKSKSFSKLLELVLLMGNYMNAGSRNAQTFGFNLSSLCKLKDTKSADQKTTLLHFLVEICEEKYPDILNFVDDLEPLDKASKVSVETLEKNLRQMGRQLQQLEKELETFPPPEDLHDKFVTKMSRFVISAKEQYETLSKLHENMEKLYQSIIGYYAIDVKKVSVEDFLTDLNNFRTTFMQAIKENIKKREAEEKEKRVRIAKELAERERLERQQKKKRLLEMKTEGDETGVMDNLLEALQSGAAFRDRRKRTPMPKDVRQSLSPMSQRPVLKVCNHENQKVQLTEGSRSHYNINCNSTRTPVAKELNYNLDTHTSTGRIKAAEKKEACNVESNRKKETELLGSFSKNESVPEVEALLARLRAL
- thermal stability z-score (potassium arsenate): -0.0767
- thermal stability z-score (lipoamide; [1]): -1.4
- thermal stability z-score (lipoamide; arsenate co-treatment: none): -0.761

Target: PTPN12 (UniProt Q05209)
- thermal stability z-score (potassium arsenate): -0.087
- thermal stability z-score (lipoamide; [1]): -0.407
- thermal stability z-score (lipoamide; arsenate co-treatment: none): -0.595

Target: RPUSD4 (UniProt Q96CM3)
- thermal stability z-score (potassium arsenate): -0.998
- thermal stability z-score (lipoamide; [1]): -0.196
- thermal stability z-score (lipoamide; arsenate co-treatment: none): -1.67

Target: KIF21A (UniProt Q7Z4S6)
- thermal stability z-score (potassium arsenate): 0.269
- thermal stability z-score (lipoamide; [1]): -0.586
- thermal stability z-score (lipoamide; arsenate co-treatment: none): -0.117

Target: CHCHD4 (UniProt Q8N4Q1)
- thermal stability z-score (potassium arsenate): -0.236
- thermal stability z-score (lipoamide; [1]): 0.0185
- thermal stability z-score (lipoamide; arsenate co-treatment: none): 0.497

Target: SEC23IP (UniProt Q9Y6Y8)
- thermal stability z-score (potassium arsenate): 1.54
- thermal stability z-score (lipoamide; [1]): -0.784
- thermal stability z-score (lipoamide; arsenate co-treatment: none): -1.16

Target: COQ6 (UniProt Q9Y2Z9)
- thermal stability z-score (potassium arsenate): -2.7
- thermal stability z-score (lipoamide; [1]): 1.2
- thermal stability z-score (lipoamide; arsenate co-treatment: none): -0.131

Target: PTPN3 (UniProt P26045)
- thermal stability z-score (potassium arsenate): -0.31
- thermal stability z-score (lipoamide; [1]): -0.085
- thermal stability z-score (lipoamide; arsenate co-treatment: none): -0.294

Target: EPB41 (UniProt P11171)
- thermal stability z-score (potassium arsenate): -0.0292
- thermal stability z-score (lipoamide; [1]): -0.424
- thermal stability z-score (lipoamide; arsenate co-treatment: none): -0.262

Target: CPNE1 (UniProt Q99829)
- thermal stability z-score (potassium arsenate): -0.934
- thermal stability z-score (lipoamide; [1]): 0.0896
- thermal stability z-score (lipoamide; arsenate co-treatment: none): 0.0907

Target: PISD (UniProt Q9UG56)
- thermal stability z-score (potassium arsenate): 0.0415
- thermal stability z-score (lipoamide; [1]): 0.488
- thermal stability z-score (lipoamide; arsenate co-treatment: none): 0.414

Target: SMARCB1 (UniProt Q12824)
- thermal stability z-score (potassium arsenate): -0.198
- thermal stability z-score (lipoamide; [1]): -0.25
- thermal stability z-score (lipoamide; arsenate co-treatment: none): -0.186

Target: TRAF6 (UniProt Q9Y4K3)
- thermal stability z-score (potassium arsenate): -0.00689
- thermal stability z-score (lipoamide; [1]): -0.0771
- thermal stability z-score (lipoamide; arsenate co-treatment: none): -0.0851

Target: PPP6C (UniProt O00743)
- thermal stability z-score (potassium arsenate): -0.409
- thermal stability z-score (lipoamide; [1]): 0.512
- thermal stability z-score (lipoamide; arsenate co-treatment: none): 0.089

Target: AGPAT1 (UniProt Q99943)
- thermal stability z-score (potassium arsenate): 0.0795
- thermal stability z-score (lipoamide; [1]): -0.0471
- thermal stability z-score (lipoamide; arsenate co-treatment: none): -0.591

Target: TMPO
- thermal stability z-score (potassium arsenate): 2.87
- thermal stability z-score (lipoamide; [1]): 0.194
- thermal stability z-score (lipoamide; arsenate co-treatment: none): 0.0563

Target: PRKCI (UniProt P41743)
UniProt P41743, sequence (P41743 whole entry): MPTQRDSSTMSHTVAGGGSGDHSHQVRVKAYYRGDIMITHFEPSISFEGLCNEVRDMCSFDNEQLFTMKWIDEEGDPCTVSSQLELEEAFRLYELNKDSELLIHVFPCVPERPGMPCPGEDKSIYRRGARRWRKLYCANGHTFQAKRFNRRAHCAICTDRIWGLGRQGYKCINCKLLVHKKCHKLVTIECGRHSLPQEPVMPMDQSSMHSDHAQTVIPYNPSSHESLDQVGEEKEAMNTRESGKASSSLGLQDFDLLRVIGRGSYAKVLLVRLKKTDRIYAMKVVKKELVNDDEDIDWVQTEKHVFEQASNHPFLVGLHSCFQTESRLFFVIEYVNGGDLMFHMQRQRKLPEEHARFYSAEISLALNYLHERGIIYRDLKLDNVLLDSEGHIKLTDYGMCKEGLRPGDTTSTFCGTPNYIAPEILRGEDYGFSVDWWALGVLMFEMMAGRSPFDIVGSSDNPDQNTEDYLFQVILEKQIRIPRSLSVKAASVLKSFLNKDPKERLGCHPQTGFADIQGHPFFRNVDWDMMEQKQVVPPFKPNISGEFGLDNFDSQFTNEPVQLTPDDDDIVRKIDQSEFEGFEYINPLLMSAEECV
- thermal stability z-score (potassium arsenate): -0.914
- thermal stability z-score (lipoamide; [1]): -0.507
- thermal stability z-score (lipoamide; arsenate co-treatment: none): -0.312

Target: GHDC (UniProt Q8N2G8)
- thermal stability z-score (potassium arsenate): 0.229
- thermal stability z-score (lipoamide; [1]): -0.848
- thermal stability z-score (lipoamide; arsenate co-treatment: none): 0.229

Target: SMYD5 (UniProt Q6GMV2)
- thermal stability z-score (potassium arsenate): 0.224
- thermal stability z-score (lipoamide; [1]): -0.19
- thermal stability z-score (lipoamide; arsenate co-treatment: none): -0.177

Target: ERBB2IP (UniProt Q96RT1)
- thermal stability z-score (potassium arsenate): -1.94
- thermal stability z-score (lipoamide; [1]): 0.354
- thermal stability z-score (lipoamide; arsenate co-treatment: none): -0.307

Target: PTPN11 (UniProt Q06124)
UniProt Q06124, sequence (Q06124 whole entry): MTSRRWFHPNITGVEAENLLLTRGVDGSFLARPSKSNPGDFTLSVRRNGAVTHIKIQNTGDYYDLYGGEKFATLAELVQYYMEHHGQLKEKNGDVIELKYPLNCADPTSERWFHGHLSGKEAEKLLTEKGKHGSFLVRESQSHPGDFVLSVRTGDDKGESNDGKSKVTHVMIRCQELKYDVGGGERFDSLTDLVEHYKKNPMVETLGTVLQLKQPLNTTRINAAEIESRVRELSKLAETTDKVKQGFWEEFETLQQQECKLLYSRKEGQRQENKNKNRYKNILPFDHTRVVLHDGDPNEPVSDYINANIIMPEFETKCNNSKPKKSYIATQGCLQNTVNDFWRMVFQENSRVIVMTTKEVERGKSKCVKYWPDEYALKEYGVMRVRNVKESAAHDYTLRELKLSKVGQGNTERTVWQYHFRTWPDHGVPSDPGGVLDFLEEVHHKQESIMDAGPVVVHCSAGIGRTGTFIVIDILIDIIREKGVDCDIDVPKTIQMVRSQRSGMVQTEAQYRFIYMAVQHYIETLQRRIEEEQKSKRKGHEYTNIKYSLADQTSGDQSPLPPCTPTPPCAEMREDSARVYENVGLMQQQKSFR
- thermal stability z-score (potassium arsenate): -0.559
- thermal stability z-score (lipoamide; [1]): 0.431
- thermal stability z-score (lipoamide; arsenate co-treatment: none): 0.267

Target: CCDC167 (UniProt Q9P0B6)
- thermal stability z-score (potassium arsenate): 0.0429
- thermal stability z-score (lipoamide; [1]): -0.711
- thermal stability z-score (lipoamide; arsenate co-treatment: none): -1.16

Target: RCN1 (UniProt Q15293)
- thermal stability z-score (potassium arsenate): 0.52
- thermal stability z-score (lipoamide; [1]): -1.02
- thermal stability z-score (lipoamide; arsenate co-treatment: none): -0.814

Target: PFDN6 (UniProt O15212)
- thermal stability z-score (potassium arsenate): 1.42
- thermal stability z-score (lipoamide; [1]): 1.95
- thermal stability z-score (lipoamide; arsenate co-treatment: none): 2.18

Target: MKNK1 (UniProt Q9BUB5)
- thermal stability z-score (potassium arsenate): -1.53
- thermal stability z-score (lipoamide; [1]): -0.146
- thermal stability z-score (lipoamide; arsenate co-treatment: none): -0.928

Target: C17ORF62 (UniProt Q9BQA9)
- thermal stability z-score (potassium arsenate): 1.37
- thermal stability z-score (lipoamide; [1]): 0.898
- thermal stability z-score (lipoamide; arsenate co-treatment: none): 0.761

Target: GHITM (UniProt Q9H3K2)
- thermal stability z-score (potassium arsenate): -0.0999
- thermal stability z-score (lipoamide; [1]): -0.161
- thermal stability z-score (lipoamide; arsenate co-treatment: none): -0.193

Target: SRPRA (UniProt P08240)
- thermal stability z-score (potassium arsenate): 0.545
- thermal stability z-score (lipoamide; [1]): -0.176
- thermal stability z-score (lipoamide; arsenate co-treatment: none): -0.208

Target: GNPNAT1 (UniProt Q96EK6)
UniProt Q96EK6, sequence (Q96EK6 whole entry): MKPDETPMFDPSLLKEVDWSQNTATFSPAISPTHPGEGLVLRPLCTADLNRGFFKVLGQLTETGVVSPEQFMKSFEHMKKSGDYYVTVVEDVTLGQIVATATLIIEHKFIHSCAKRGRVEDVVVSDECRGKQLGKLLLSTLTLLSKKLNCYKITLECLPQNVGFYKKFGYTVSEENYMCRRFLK
- thermal stability z-score (potassium arsenate): -1.03
- thermal stability z-score (lipoamide; [1]): 0.365
- thermal stability z-score (lipoamide; arsenate co-treatment: none): -0.348

Target: HK1 (UniProt P19367)
- thermal stability z-score (potassium arsenate): 0.159
- thermal stability z-score (lipoamide; [1]): 0.339
- thermal stability z-score (lipoamide; arsenate co-treatment: none): 0.466

Target: CTSA (UniProt P10619)
- thermal stability z-score (potassium arsenate): -0.0364
- thermal stability z-score (lipoamide; [1]): -0.264
- thermal stability z-score (lipoamide; arsenate co-treatment: none): -0.283

Target: MRPL50 (UniProt Q8N5N7)
- thermal stability z-score (potassium arsenate): 1.42
- thermal stability z-score (lipoamide; [1]): 1.2
- thermal stability z-score (lipoamide; arsenate co-treatment: none): 0.662
